Test results from patent US20240293164A1, “METHODS AND COMPOSITIONS OF CRYOABLATION WITH DRUG DELIVERY” (Theromics, Inc., priority 2023, published 2024).

Experiment: differential scanning calorimetry (DSC), heat flow as a function of temperature
Assay type: physicochemical
Method: This is also an exothermic event. Upon heating, the cryoablation gel melts at about −10° C.
An exothermic event begins as the sample is cooled to about −18° C.; and the phase changing event is more than 10° C. wide. This process is more than 4×more exothermic than the crystallization of cryoablation gel, showing that the water crystallization process is much more chaotic with high entropy and takes a while to reach an ordered state. On the contrary, the cryoablation gel is a more highly ordered substance and the crystallization event produces less energy due to the relatively lower entropy.

O [water]
temperature of phase change (exothermic event) on cooling (cooling): about −18 °C
width of phase changing event (cooling): more than 10 °C
exothermicity of crystallization relative to cryoablation gel (water versus cryoablation gel): more than 4 ×
